In patent US6306853A, “1,4-Dihydropyridine derivatives” (Nikken Chemicals Co., Ltd., priority 1998, dated 2001):

Tests used:
KB/VJ 300 cells [1] = experiment: Degree of resistance to ADM (ratio of ADM LD50 concentrations) in multi-drug resistant KB/VJ 300 cells on combined administration of doxorubicin and test compound; format: cell-based, human; details: VJ-300 (resistant) cells; ADM + test compound 1 μg/ml; relative to ADM alone in KB = 1
Experimental: In Vitro Test of Action Suppressing Proliferation of Cancer Cells combined administration of Doxorubicin
(§1) Human rhinopharynx cancer derived KB cells (i.e., sensitive cells) and their multi-drug resistant clone KB/VJ 300 cells (i.e., resistant cells) were used as the test cells. As the incubation solutions, use was made of 10% fetal calf serum (Flow Laboratories) and Eagle MEM medium (Nissui Seiyaku) containing 0.292 mg/ml of L-glutamine (Flow Laboratories). The tests of the action for overcoming resistance to anti-cancer drugs or action for increasing the effect of the anti-cancer drug with the combined administration of the anti-cancer drug doxorubicin (i.e., adriamycin, ADM) and the test compound were performed as follows:
The test cells were suspended in incubation solutions and adjusted to a cell density of about 200 cells/ml. The cell suspensions were injected in 2 ml amounts into petri dishes and were incubated in a CO2 gas incubator (5% CO2, 95% air) at 37° C. for 24 hours. Then, 5-10 μl of a predetermined concentration of the aqueous ADM solution and a predetermined concentration of a DMSO solution of the test compound were added, then the incubation was continued for a further 6 days. After the end of the incubation, the result was immobilized with methanol, Tripan blue stained and measured for the number of colonies per dish. […]

[2] = tested on: VCR resistant murine leukemia (P388/VCR) cells; experiment: In vivo overcoming of resistance in VCR resistant murine leukemia (P388/VCR) bearing mice, etoposide with compound 20 mg/kg; set-up: species or system CDF1 female mice; details: VP-16 3 mg/kg + compound 20 mg/kg, i.v. once per day for 5 days; for Rate of prolongation of life T/C: vs control
Experimental: In Vivo Test of Action Suppressing Proliferation of Cancer Cells by Combined Administration of Anti-cancer Drug Etoposide
Effect of Overcoming Resistance to an Anti-cancer Drug for VCR Resistant Murine Leukemia Cell Bearing Mice
1.2×10^5 VCR resistant murine leukemia (P388/VCR) cells were transplanted intravenously into groups of 5-6 CDF1 female mice, then the compound of the present invention (20 mg/kg) and Etoposide (VP-16) (3 mg/kg) were administered intravenously once per day for 5 days, after dissolving them in a physiological salt solution containing a small amount of hydrochloric acid. The observation was started from the next day. The number of survival days were found and the life prolonging rate (T/C) with respect to the controls was found. The effect in overcoming resistance to an anti-cancer drug (T/V) was found by the following formula.
Effect of overcoming resistance to the anti-cancer drug (T/V) %
=[(Rate of prolongation of life using VP-16 and the present compound (T/C))/(Rate of prolongation of life using VP-16 alone (T/C))]×100

[3] = tested on: thoracic aorta of the rat; experiment: Action easing KCl contraction in rat arteries; details: rat thoracic aorta ring, 50 mM KCl, compound 10^-6 M; read-out: Inhibitory rate of hyperpotassium contraction at 10^-6 M
Experimental: Action Easing KCl Contraction in Rat Arteries
The specimen was stabilized for approximately 60 minutes, then a potassium chloride solution was added to the Magnus tube to give a final concentration of 50 mM. The positive control compound or the compound of the present invention was cumulatively added to become 1×10^-6 M when the contraction reaction occurring at that time reached equilibrium. The contraction force was recorded by an FD-pickup (Nihon Koden) via a polygraph (Nihon Koden).

[4] = Acute toxicity test in mice, intraperitoneal; details: mouse, in vivo, ip, 7 days observation
Experimental: Animals used: ddY male mice (SLC Japan), 4-5 weeks old, three to five mice per group.
Test method: The compound of the present invention was suspended in 0.5% sodium carboxymethylcellulose (CMC-Na) containing 0.1% Tween 80. It was administered to the mice intraperitoneally in amounts of 250, 500 or 1000 mg/kg in groups of three to five mice. The survival of the animals was observed up until 7 days after administration and LD50 value was calculated according to a Probit method.

KB/VJ 300 cells [5] = experiment: Degree of resistance to VCR in multi-drug resistant VJ-300 cells on combined administration of vincristine and test compound; format: cell-based, human; details: relative to KB = 1
Experimental: as §1, with “action for increasing the effect of the anti-cancer drug with the combined administration of the anti-cancer drug doxorubicin (i.e., adriamycin, ADM) and the test compound were performed as follows:” left out
The test cells were suspended in incubation solutions and adjusted to a cell density of about 200 cells/ml. The cell suspensions were injected in 2 ml amounts into petri dishes and were incubated in a CO2 gas incubator (5% CO2, 95% air) at 37° C. for 24 hours. […] After the end of the incubation, the result was immobilized with methanol, Tripan blue stained and measured for the number of colonies per dish. The results were used to prepare a volume-reaction curve. From this, the ADM concentration of the 50% cell survival rate (LD50 ) was calculated and the effect for overcoming resistance to anti-cancer drugs and the effect for increasing the effect of anti-cancer drugs were judged. The results are shown in Table 12 to Table 14 using the concentration of LD50 of ADM in the ADM alone group when KB cells were used as the resistance degree 1 and calculating the resistances of the following LD50 concentrations as relative ratios. […]

multidrug resistance = details: literature statement in words; cited from earlier work

Question: With “6-Methyl-2-[4-(2-methylimidazo[4,5-b]pyridin-1-yl)phenyl]-4-(2-phenylethyl)-1,4-dihydropyridin-3,5-dicarboxylate 3-ethylester 5-[3-(3-pyridyl)-2-propynyl]ester [Compound 51]” as the compound, how does the “Degree of resistance for ADM, VJ-300” value (KB/VJ 300 cells [1]) read?
Answer: Its value is 1.43.

Question: For “6-Methyl-2-[4-(2-methylimidazo[4,5-b]pyridin-1-yl)phenyl]-4-pentyl-1,4-dihydropyridin-3,5-dicarboxylate 3-ethylester 5-[3-(3-pyridyl)2-propynyl]ester [Compound 52]”, which “Degree of resistance for ADM, VJ-300” value (KB/VJ 300 cells [1]) is on record?
Answer: The value was 1.60.

Question: Which results are given for `CCOC(=O)C1=C(c2ccc(-n3c(C)nc4cnccc43)cc2)NC(C)=C(C(=O)OCC#Cc2cccnc2)C1C` (stereo not shown) [Compound 1, 4,6-dimethyl-2-[4-(2-methylimidazo[4,5-c]pyridin-1-yl)phenyl]-1,4-dihydropyridin-3,5-dicarboxylic acid 3-ethylester 5-[3-(3-pyridyl)-2-propynyl]ester]?
Answer: Average days of survival [2]: 13.6 days; Rate of prolongation of life T/C [2]: 148%; inhibition at 1 µM [3]: 0%

Question: Which results are given for `CCOC(=O)C1=C(c2ccc(-n3c(C)nc4cnccc43)cc2)NC(C)=C(C(=O)OCC#Cc2cccnc2)C1Cc1ccccc1` (stereo not shown) [Compound 6, 4-Benzyl-6-methyl-2-[4-(2-methylimidazo[4,5-c]pyridin-1-yl)phenyl]-1,4-dihydropyridin-3,5-dicarboxylate 3-ethylester 5-[3-(3-pyridyl)-2-propynyl]ester]?
Answer: Average days of survival [2]: 16.0 days; Rate of prolongation of life T/C [2]: 174%; inhibition at 1 µM [3]: 7.5%

Question: Which “Average days of survival” value [2] does the source give for `CCOC(=O)C1=C(c2ccc(-n3c(C)nc4cnccc43)cc2)NC(C)=C(C(=O)OCC#Cc2cccnc2)C1CCc1ccccc1` (stereo not shown) [Compound 9, 6-Methyl-2-[4-(2-methylimidazo[4,5-c]pyridin-1-yl)phenyl]-4-(2-phenylethyl)-1,4-dihydropyridin-3,5-dicarboxylate 3-ethylester 5-[3-(3-pyridyl)-2-propynyl]ester] here?
Answer: The value was 15.0 days.

Question: What about the “Rate of prolongation of life T/C” value [2] of the same compound?
Answer: The value was 163%.

Question: And the LD50 at 168 h [4]?
Answer: Its LD50 at 168 h is > 1000 mg/kg.

Question: Which results are given for `CCOC(=O)C1=C(c2ccc(-n3c(C)nc4cnccc43)cc2)NC(C)=C(C(=O)OCC#Cc2cccnc2)C1/C=C/c1ccccc1OC` (stereo not shown) [Compound 14, 4-[(E)-2-(2-Methoxyphenyl)ethenyl]-6-methyl-2-[4-(2-methylimidazo[4,5-c]pyridin-1-yl)phenyl]-1,4-dihydropyridin-3,5-dicarboxylate 3-ethylester 5-[3-(3-pyridyl)-2-propynyl]ester]?
Answer: Average days of survival [2]: 15.7 days; Rate of prolongation of life T/C [2]: 154%; inhibition at 1 µM [3]: 0%

Question: Which “Average days of survival” value [2] does the source give for `CCOC(=O)C1=C(c2ccc(-n3c(C)nc4cnccc43)cc2)NC(C)=C(C(=O)OCC#Cc2cccnc2)C1/C=C/c1ccco1` (stereo not shown) [Compound 16, 4-[(E)-2-(2-Furyl)ethenyl]-6-methyl-2-[4-(2-methylimidazo[4,5c]pyridin-1-yl)phenyl]1,4-dihdropyridin-3,5-dicarboxylate 3-ethylester 5-[3-(3-pyridyl)-2-propynyl]ester] here?
Answer: The value was 15.0 days.

Question: And the “Rate of prolongation of life T/C” value [2]?
Answer: The value was 147%.

Question: And the inhibition at 1 µM [3]?
Answer: The inhibition at 1 µM was 0%.

Question: For `CCOC(=O)C1=C(c2ccc(-n3c(C)nc4cnccc43)cc2)NC(C)=C(C(=O)OCC#Cc2cccnc2)C1CCc1ccsc1` (stereo not shown) [Compound 17, 6-Methyl-2-[4-(2-methylimidazo[4,5-c]pyridin-1-yl)phenyl]-4-[2-(3-thienyl)ethyl]-1,4-dihydropyridin-3,5-dicarboxylate 3-ethylester 5-[3-(3-pyridyl)2-propynyl]ester], which “Average days of survival” value [2] is on record?
Answer: The value was 13.4 days.

Question: What about the “Rate of prolongation of life T/C” value [2] of the same compound?
Answer: The value was 146%.

Question: What about the inhibition at 1 µM [3] of the same compound?
Answer: The inhibition at 1 µM was 0%.

Question: Which results are given for `CCCCCC1C(C(=O)OC(C)C#Cc2cccnc2)=C(C)NC(c2ccc(-n3c(C)nc4cnccc43)cc2)=C1C(=O)OCC` (stereo not shown) [Compound 22, 6-Methyl-2-[4-(2-methylimidazo[4,5-c]pyridin-1-yl)phenyl]-4-pentyl-1,4-dihydropyridin-3,5-dicarboxylate 3-ethylester 5-[1-methyl-3-(3-pyridyl)-2-propynyl]ester]?
Answer: Average days of survival [2]: 14.6 days; Rate of prolongation of life T/C [2]: 159%; LD50 at 168 h [4]: > 1000 mg/kg; inhibition at 1 µM [3]: 0%

Question: With `CCOC(=O)C1=C(c2ccc(-n3ccnc3)cc2)NC(C)=C(C(=O)OCC#Cc2cccnc2)C1/C=C/c1ccccc1` (stereo not shown) [Compound 24, 2-[4-(1-Imidazolyl)phenyl]-6-methyl-4-[(E)-2-phenylethenyl]-1,4-dihydropyridin-3,5-dicarboxylate 3-ethylester 5-[3-(3-pyridyl)-2-propynyl]ester] as the compound, how does the LD50 at 168 h [4] read?
Answer: The LD50 at 168 h was > 1000 mg/kg.

Question: For `CC[C@]1(O)C[C@H]2CN(CCc3c([nH]c4ccccc34)[C@@](C(=O)OC)(c3cc4c(cc3OC)N(C=O)[C@H]3[C@@](O)(C(=O)OC)[C@H](OC(C)=O)[C@]5(CC)C=CCN6CC[C@]43[C@@H]65)C2)C1` [VCR, vincristine], which “Degree of resistance for VCR, VJ-300 (VCR alone, control)” value (KB/VJ 300 cells [5]) is on record?
Answer: The value was 903-970.

Question: What does the source list for `COC(=O)C1=C(C)NC(C)=C(C(=O)OCCN(C)Cc2ccccc2)C1c1cccc([N+](=O)[O-])c1` (stereo not shown) [nicardipine, reference compound]?
Answer: inhibition at 1 µM [3]: 100%; effect of combined administration with an anti-cancer drug on multidrug resistance (multidrug resistance): effective
